Assay results: ChEMBL document CHEMBL5715260, “Selectivity Literature for EUbOPEN Chemogenomic Library” (2024)
Each block holds one compound with its values, some of them ahead of it.

Assays:
[1] = target: T1, Hepatocyte nuclear factor 4-alpha (Homo sapiens) (UniProt P41235); experiment: Selectivity interaction (Reporter gene assay) EUB0001145aNa HNF4A; design: recommended concentration 1 uM
T1 sequence (whole entry): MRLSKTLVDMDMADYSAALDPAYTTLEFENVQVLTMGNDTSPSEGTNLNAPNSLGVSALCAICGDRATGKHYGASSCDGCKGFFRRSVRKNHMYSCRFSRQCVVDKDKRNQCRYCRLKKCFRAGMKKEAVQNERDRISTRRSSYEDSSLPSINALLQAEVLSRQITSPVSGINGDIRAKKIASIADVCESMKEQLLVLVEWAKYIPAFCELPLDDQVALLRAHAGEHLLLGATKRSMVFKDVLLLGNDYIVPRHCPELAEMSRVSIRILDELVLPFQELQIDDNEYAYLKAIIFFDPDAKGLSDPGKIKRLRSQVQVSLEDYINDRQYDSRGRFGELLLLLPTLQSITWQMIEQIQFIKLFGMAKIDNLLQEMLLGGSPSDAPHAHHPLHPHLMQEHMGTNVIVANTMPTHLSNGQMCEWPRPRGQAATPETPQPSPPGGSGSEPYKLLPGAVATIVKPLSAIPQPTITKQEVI

[2] = target: T2, Nuclear receptor subfamily 2 group C member 1 (Homo sapiens) (UniProt P13056); experiment: Selectivity interaction (Reporter gene assay) EUB0001145aNa NR2C1; design: recommended concentration 1 uM
T2 sequence (whole entry): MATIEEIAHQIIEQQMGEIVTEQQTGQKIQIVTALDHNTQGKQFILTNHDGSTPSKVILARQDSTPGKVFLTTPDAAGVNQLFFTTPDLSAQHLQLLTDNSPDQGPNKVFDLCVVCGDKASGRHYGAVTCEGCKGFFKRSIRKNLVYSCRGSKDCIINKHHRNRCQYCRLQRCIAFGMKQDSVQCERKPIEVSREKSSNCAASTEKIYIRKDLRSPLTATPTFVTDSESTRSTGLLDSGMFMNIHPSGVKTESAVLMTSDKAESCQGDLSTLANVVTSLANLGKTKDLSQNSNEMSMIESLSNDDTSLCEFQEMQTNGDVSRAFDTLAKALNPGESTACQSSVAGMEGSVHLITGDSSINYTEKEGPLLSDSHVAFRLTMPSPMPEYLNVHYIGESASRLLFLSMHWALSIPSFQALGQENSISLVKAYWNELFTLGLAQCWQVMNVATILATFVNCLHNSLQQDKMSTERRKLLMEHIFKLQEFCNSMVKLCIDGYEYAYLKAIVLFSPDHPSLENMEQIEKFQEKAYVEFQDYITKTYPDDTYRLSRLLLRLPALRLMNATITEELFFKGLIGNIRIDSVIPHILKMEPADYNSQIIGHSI

[3] = target: Nuclear receptor subfamily 2 group E member 1 (Homo sapiens) (UniProt Q9Y466); experiment: Selectivity interaction (Reporter gene assay) EUB0001145aNa NR2E1; design: recommended concentration 1 uM
Nuclear receptor subfamily 2 group E member 1 (Homo sapiens), sequence (Q9Y466 whole entry): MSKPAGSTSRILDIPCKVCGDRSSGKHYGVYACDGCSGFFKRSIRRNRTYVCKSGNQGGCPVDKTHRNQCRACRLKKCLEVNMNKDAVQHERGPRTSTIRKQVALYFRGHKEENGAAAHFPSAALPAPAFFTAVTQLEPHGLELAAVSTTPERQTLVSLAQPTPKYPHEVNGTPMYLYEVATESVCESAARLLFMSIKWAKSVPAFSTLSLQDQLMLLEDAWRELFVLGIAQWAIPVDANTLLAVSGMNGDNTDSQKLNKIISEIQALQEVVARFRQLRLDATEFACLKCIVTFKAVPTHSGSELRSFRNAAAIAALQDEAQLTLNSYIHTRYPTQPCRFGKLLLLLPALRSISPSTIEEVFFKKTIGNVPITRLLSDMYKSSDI

[4] = target: Nuclear receptor subfamily 4immunitygroup A member 1 (Homo sapiens) (UniProt P22736); experiment: Selectivity interaction (Reporter gene assay) EUB0001145aNa NR4A1; design: recommended concentration 1 uM
Nuclear receptor subfamily 4immunitygroup A member 1 (Homo sapiens), sequence (P22736 whole entry): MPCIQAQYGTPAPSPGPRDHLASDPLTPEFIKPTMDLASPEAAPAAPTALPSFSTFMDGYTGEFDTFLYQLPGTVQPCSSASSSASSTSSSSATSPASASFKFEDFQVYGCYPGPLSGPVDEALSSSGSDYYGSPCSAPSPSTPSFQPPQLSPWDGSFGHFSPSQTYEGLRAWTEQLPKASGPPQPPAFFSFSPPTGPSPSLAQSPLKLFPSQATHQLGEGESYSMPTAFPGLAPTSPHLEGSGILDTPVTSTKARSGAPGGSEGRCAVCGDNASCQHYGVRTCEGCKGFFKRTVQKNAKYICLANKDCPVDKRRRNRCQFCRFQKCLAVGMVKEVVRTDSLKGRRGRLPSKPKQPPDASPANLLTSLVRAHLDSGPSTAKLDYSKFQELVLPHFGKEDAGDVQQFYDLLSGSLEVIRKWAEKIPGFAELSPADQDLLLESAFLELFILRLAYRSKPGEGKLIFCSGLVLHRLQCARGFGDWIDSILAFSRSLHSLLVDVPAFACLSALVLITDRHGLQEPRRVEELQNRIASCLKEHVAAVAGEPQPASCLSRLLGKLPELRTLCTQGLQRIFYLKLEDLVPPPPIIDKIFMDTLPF

[5] = target: Steroidogenic factor 1 (Homo sapiens) (UniProt Q13285); experiment: Selectivity interaction (Reporter gene assay) EUB0001145aNa NR5A1; design: recommended concentration 1 uM
Steroidogenic factor 1 (Homo sapiens), sequence (Q13285 whole entry): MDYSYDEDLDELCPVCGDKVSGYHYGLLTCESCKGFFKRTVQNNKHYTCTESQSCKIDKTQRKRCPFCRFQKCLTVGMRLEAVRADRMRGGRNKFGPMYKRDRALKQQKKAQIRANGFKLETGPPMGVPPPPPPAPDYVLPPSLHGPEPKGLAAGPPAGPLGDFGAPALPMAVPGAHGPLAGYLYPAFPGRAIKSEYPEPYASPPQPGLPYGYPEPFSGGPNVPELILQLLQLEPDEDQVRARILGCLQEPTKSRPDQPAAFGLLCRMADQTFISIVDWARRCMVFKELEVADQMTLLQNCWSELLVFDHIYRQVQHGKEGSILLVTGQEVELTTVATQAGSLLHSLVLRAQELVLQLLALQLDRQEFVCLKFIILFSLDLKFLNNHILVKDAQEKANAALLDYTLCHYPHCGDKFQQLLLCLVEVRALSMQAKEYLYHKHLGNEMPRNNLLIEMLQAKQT

[6] = target: T3, Alpha trans-inducing protein (Human alphaherpesvirus 1) (UniProt A0A5J6DW59); experiment: Selectivity interaction (Reporter gene assay) EUB0001145aNa UL48; design: recommended concentration 1 uM
T3 sequence (A0A5J6DW59 as listed by the source): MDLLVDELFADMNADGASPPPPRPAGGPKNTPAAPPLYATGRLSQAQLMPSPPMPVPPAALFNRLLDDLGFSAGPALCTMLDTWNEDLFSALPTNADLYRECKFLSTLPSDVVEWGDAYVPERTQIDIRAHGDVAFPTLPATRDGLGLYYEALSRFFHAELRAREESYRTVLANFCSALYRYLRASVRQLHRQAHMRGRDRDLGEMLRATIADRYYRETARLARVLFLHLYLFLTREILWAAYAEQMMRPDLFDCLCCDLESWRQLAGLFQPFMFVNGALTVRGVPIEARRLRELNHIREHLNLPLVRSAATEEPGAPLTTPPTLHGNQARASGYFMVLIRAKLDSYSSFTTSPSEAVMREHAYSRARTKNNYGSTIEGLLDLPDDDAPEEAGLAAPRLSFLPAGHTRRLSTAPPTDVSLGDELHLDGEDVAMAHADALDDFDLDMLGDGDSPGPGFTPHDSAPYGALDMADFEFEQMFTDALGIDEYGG

[7] = target: T4, Retinoic acid receptor RXR-alpha (Homo sapiens) (UniProt P19793); experiment: Selectivity interaction (Reporter gene assay) EUB0001145aNa RXRA; design: recommended concentration 1 uM; conditions: reference bexarotene 1 uM, Selectivity number of off-targets 0.0, Selectivity number of targets 1.0, Source Knowledge inhouse
T4 sequence (whole entry): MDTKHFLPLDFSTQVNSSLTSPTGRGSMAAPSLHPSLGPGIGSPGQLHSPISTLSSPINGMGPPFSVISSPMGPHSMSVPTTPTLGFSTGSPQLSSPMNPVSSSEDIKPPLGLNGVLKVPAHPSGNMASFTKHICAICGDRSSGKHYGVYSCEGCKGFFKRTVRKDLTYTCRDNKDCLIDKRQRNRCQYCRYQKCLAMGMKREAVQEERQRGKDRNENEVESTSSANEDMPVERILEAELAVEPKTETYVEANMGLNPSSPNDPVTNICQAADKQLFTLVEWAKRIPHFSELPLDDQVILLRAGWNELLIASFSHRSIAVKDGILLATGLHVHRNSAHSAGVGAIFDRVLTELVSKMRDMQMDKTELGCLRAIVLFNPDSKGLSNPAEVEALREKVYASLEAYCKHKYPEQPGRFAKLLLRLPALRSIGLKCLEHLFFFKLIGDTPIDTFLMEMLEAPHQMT

[8] = target: T1, Hepatocyte nuclear factor 4-alpha (Homo sapiens); experiment: Selectivity interaction (Reporter gene assay) EUB0001156a HNF4A; design: recommended concentration 1 uM
[9] = target: T2, Nuclear receptor subfamily 2 group C member 1 (Homo sapiens); experiment: Selectivity interaction (Reporter gene assay) EUB0001156a NR2C1; design: recommended concentration 1 uM
[10] = target: Nuclear receptor subfamily 2 group E member 1 (Homo sapiens) (UniProt Q9Y466); experiment: Selectivity interaction (Reporter gene assay) EUB0001156a NR2E1; design: recommended concentration 1 uM
[11] = target: Nuclear receptor subfamily 4immunitygroup A member 1 (Homo sapiens) (UniProt P22736); experiment: Selectivity interaction (Reporter gene assay) EUB0001156a NR4A1; design: recommended concentration 1 uM
[12] = target: Steroidogenic factor 1 (Homo sapiens) (UniProt Q13285); experiment: Selectivity interaction (Reporter gene assay) EUB0001156a NR5A1; design: recommended concentration 1 uM
[13] = target: T3, Alpha trans-inducing protein (Human alphaherpesvirus 1); experiment: Selectivity interaction (Reporter gene assay) EUB0001156a UL48; design: recommended concentration 1 uM; conditions: screened at recom. conc., Selectivity number of off-targets 0.0, Selectivity number of targets 1.0, Source Knowledge inhouse
[14] = target: T4, Retinoic acid receptor RXR-alpha (Homo sapiens); experiment: Selectivity interaction (Reporter gene assay) EUB0001156a RXRA; design: recommended concentration 1 uM; conditions: reference bexarotene 1 uM, Selectivity number of off-targets 0.0, Selectivity number of targets 1.0, Source Knowledge inhouse
[15] = target: Nuclear receptor subfamily 4immunitygroup A member 1 (Homo sapiens) (UniProt P22736); experiment: Selectivity interaction (Reporter gene assay) EUB0001153a NR4A1; design: recommended concentration 10 uM; conditions: screened at recom. conc., Selectivity number of off-targets 1.0, Selectivity number of targets 5.0, Source Knowledge inhouse
[16] = target: T1, Hepatocyte nuclear factor 4-alpha (Homo sapiens); experiment: Selectivity interaction (Reporter gene assay) EUB0001153a HNF4A; design: recommended concentration 10 uM
[17] = target: T2, Nuclear receptor subfamily 2 group C member 1 (Homo sapiens); experiment: Selectivity interaction (Reporter gene assay) EUB0001153a NR2C1; design: recommended concentration 10 uM
[18] = target: Nuclear receptor subfamily 2 group E member 1 (Homo sapiens) (UniProt Q9Y466); experiment: Selectivity interaction (Reporter gene assay) EUB0001153a NR2E1; design: recommended concentration 10 uM
[19] = target: Steroidogenic factor 1 (Homo sapiens) (UniProt Q13285); experiment: Selectivity interaction (Reporter gene assay) EUB0001153a NR5A1; design: recommended concentration 10 uM
[20] = target: T3, Alpha trans-inducing protein (Human alphaherpesvirus 1); experiment: Selectivity interaction (Reporter gene assay) EUB0001153a UL48; design: recommended concentration 10 uM
[21] = target: T4, Retinoic acid receptor RXR-alpha (Homo sapiens); experiment: Selectivity interaction (Reporter gene assay) EUB0001153a RXRA; design: recommended concentration 10 uM; conditions: reference bexarotene 1 uM, Selectivity number of off-targets 0.0, Selectivity number of targets 1.0, Source Knowledge inhouse
[22] = target: T1, Hepatocyte nuclear factor 4-alpha (Homo sapiens); experiment: Selectivity interaction (Reporter gene assay) EUB0001147a HNF4A; design: recommended concentration 1 uM
[23] = target: T2, Nuclear receptor subfamily 2 group C member 1 (Homo sapiens); experiment: Selectivity interaction (Reporter gene assay) EUB0001147a NR2C1; design: recommended concentration 1 uM
[24] = target: Nuclear receptor subfamily 2 group E member 1 (Homo sapiens) (UniProt Q9Y466); experiment: Selectivity interaction (Reporter gene assay) EUB0001147a NR2E1; design: recommended concentration 1 uM
[25] = target: Nuclear receptor subfamily 4immunitygroup A member 1 (Homo sapiens) (UniProt P22736); experiment: Selectivity interaction (Reporter gene assay) EUB0001147a NR4A1; design: recommended concentration 1 uM
[26] = target: Steroidogenic factor 1 (Homo sapiens) (UniProt Q13285); experiment: Selectivity interaction (Reporter gene assay) EUB0001147a NR5A1; design: recommended concentration 1 uM
[27] = target: T3, Alpha trans-inducing protein (Human alphaherpesvirus 1); experiment: Selectivity interaction (Reporter gene assay) EUB0001147a UL48; design: recommended concentration 1 uM
[28] = target: T4, Retinoic acid receptor RXR-alpha (Homo sapiens); experiment: Selectivity interaction (Reporter gene assay) EUB0001147a RXRA; design: recommended concentration 1 uM; conditions: reference bexarotene 1 uM, Selectivity number of off-targets 0.0, Selectivity number of targets 1.0, Source Knowledge inhouse
[29] = target: T1, Hepatocyte nuclear factor 4-alpha (Homo sapiens); experiment: Selectivity interaction (Reporter gene assay) EUB0001148a HNF4A; design: recommended concentration 1 uM
[30] = target: T2, Nuclear receptor subfamily 2 group C member 1 (Homo sapiens); experiment: Selectivity interaction (Reporter gene assay) EUB0001148a NR2C1; design: recommended concentration 1 uM
[31] = target: Nuclear receptor subfamily 2 group E member 1 (Homo sapiens) (UniProt Q9Y466); experiment: Selectivity interaction (Reporter gene assay) EUB0001148a NR2E1; design: recommended concentration 1 uM
[32] = target: Nuclear receptor subfamily 4immunitygroup A member 1 (Homo sapiens) (UniProt P22736); experiment: Selectivity interaction (Reporter gene assay) EUB0001148a NR4A1; design: recommended concentration 1 uM
[33] = target: Steroidogenic factor 1 (Homo sapiens) (UniProt Q13285); experiment: Selectivity interaction (Reporter gene assay) EUB0001148a NR5A1; design: recommended concentration 1 uM
[34] = target: T3, Alpha trans-inducing protein (Human alphaherpesvirus 1); experiment: Selectivity interaction (Reporter gene assay) EUB0001148a UL48; design: recommended concentration 1 uM
[35] = target: T4, Retinoic acid receptor RXR-alpha (Homo sapiens); experiment: Selectivity interaction (Reporter gene assay) EUB0001148a RXRA; design: recommended concentration 1 uM

- Fold activation [1]: 1.17
- Fold activation [2]: 1.29
- Fold activation [3]: 1.14
- Fold activation [4]: 1.09
- Fold activation [5]: 1.13
- P-value [6]: 0.0052
- Relative activation [7]: 0.702%
SMILES: CCO[C@H](COc1ccc(C(F)(F)F)cc1)CSc1ccc(OCC(=O)O)c(C)c1

- Fold activation [8]: 1.11
- Fold activation [9]: 1.1
- Remaining activity [10]: 0.903
- Remaining activity [11]: 0.858
- Fold activation [12]: 1.1
- P-value [13]: 0.167
- Relative activation [14]: 0.302%
SMILES: O=C(Nc1ccc(C(O)(C(F)(F)F)C(F)(F)F)cc1)c1ccc(C(F)(F)F)cc1

- Fold activation [15]: 2.05
- Remaining activity [16]: 0.77
- Fold activation [17]: 1.13
- Fold activation [18]: 1.33
- Fold activation [19]: 1.11
- P-value [20]: 0.0358
- Relative activation [21]: 0.245%
SMILES: CCOC(=O)C1Cc2ccccc2CN1C(=O)c1ccc(SC)s1 (stereo not given)

- Remaining activity [22]: 0.852
- Fold activation [23]: 1.41
- Fold activation [24]: 1.11
- Fold activation [25]: 1.25
- Remaining activity [26]: 0.871
- P-value [27]: 6.06e-07
- Relative activation [28]: 0.86%
SMILES: CSc1ccc(C(=O)/C=C/c2cc(C)c(OC(C)(C)C(=O)O)c(C)c2)cc1

- Fold activation [29]: 1.1
- Fold activation [30]: 1.24
- Fold activation [31]: 1.05
- Fold activation [32]: 1.02
- Fold activation [33]: 1.05
- P-value [34]: 0.0001
- Relative activation [35]: 0.766%
SMILES: Cc1cc(SCc2sc(-c3ccc(C(F)(F)F)cc3)nc2C)ccc1OCC(=O)O
